Assay results published in PubChem BioAssay AID256 (DTP/NCI, 2004).
Several values for one entry are separate records, joined by “and”; a condition that tells them apart may be missing. Identical values can stand only once. Toxic doses and inconclusive results are not listed.

System: CD2F1 mice, L1210 leukemia ip, survival T/C
Assay: NCI In Vivo Anticancer Drug Screen. Data for tumor model L1210 Leukemia (intraperitoneal) in CD2F1 (CDF1) mice
Details: higher = longer survival
How it was run: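 Antitumor effect is scored in animals hosting a serially transplanted tumor. Values compare compound-dosed animals against vehicle-only controls as a simple quotient.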

[1] = endpoint: mean survival time, dose: 25.0 mg/kg/injection, schedule: Q04DX002 (ip), vehicle: saline with Tween-80
[2] = endpoint: mean survival time, dose: 100.0 mg/kg/injection, schedule: Q04DX002 (ip), vehicle: saline with Tween-80
[3] = endpoint: mean survival time, dose: 50.0 mg/kg/injection, schedule: Q01DX009 (ip), vehicle: saline with Tween-80
[4] = endpoint: mean survival time, dose: 100.0 mg/kg/injection, schedule: Q01DX009 (ip), vehicle: saline with Tween-80
[5] = endpoint: mean survival time, dose: 200.0 mg/kg/injection, schedule: Q01DX009 (ip), vehicle: saline with Tween-80
[6] = endpoint: mean survival time, dose: 400.0 mg/kg/injection, schedule: Q01DX009 (ip), vehicle: saline with Tween-80
[7] = endpoint: mean survival time, dose: 100.0 mg/kg/injection, schedule: Q01DX001 (ip), vehicle: saline with Tween-80
[8] = endpoint: mean survival time, dose: 100.0 mg/kg/injection, schedule: Q04DX003 (ip), vehicle: saline with Tween-80
[9] = endpoint: median survival time, dose: 12.5 mg/kg/injection, schedule: Q01DX009 (ip), vehicle: saline
[10] = endpoint: median survival time, dose: 50.0 mg/kg/injection, schedule: Q01DX009 (ip), vehicle: saline

## CC1=C(N2CC2)C(=O)C2=C(C1=O)N1CC3C(N3C)C1(O)C2COC(N)=O (configuration not stated)
endpoint: mean survival time, dose: 3.5 mg/kg/injection, schedule: Q01DX001 (ip), vehicle: carboxymethylcellulose (CMC)
  T/C: 122 % of control
endpoint: mean survival time, dose: 5.25 mg/kg/injection, schedule: Q01DX001 (ip), vehicle: carboxymethylcellulose (CMC)
  T/C: 151 % of control
endpoint: mean survival time, dose: 7.0 mg/kg/injection, schedule: Q01DX001 (ip), vehicle: carboxymethylcellulose (CMC)
  T/C: 119 % of control

## CCOc1ccc(OCC)c(NC(=O)Nc2cccc(Cl)c2)c1
[1]
  T/C: 92 % of control
endpoint: mean survival time, dose: 50.0 mg/kg/injection, schedule: Q04DX002 (ip), vehicle: saline with Tween-80
  T/C: 92 % of control
[2]
  T/C: 88 % of control

## c1ccc2sc(SSN3CC4CCC(CC4)C3)nc2c1
endpoint: mean survival time, dose: 12.5 mg/kg/injection, schedule: Q01DX009 (ip), vehicle: saline with Tween-80
  T/C: 97 % of control and 108 % of control
endpoint: mean survival time, dose: 25.0 mg/kg/injection, schedule: Q01DX009 (ip), vehicle: saline with Tween-80
  T/C: 93 % of control and 101 % of control
[3]
  T/C: 102 % of control and 103 % of control
[4]
  T/C: 101 % of control and 108 % of control
[5]
  T/C: 95 % of control and 108 % of control
[6]
  T/C: 103 % of control

## COc1ccc(NC(C)=O)c(O)c1C
[7]
  T/C: 95 % of control
endpoint: mean survival time, dose: 400.0 mg/kg/injection, schedule: Q01DX001 (ip), vehicle: saline with Tween-80
  T/C: 90 % of control

## OC1c2ccccc2-c2ccccc21
endpoint: mean survival time, dose: 100.0 mg/kg/injection, schedule: Q01DX009 (ip), vehicle: saline
  T/C: 88 % of control
endpoint: mean survival time, dose: 200.0 mg/kg/injection, schedule: Q01DX009 (ip), vehicle: saline
  T/C: 88 % of control
endpoint: mean survival time, dose: 400.0 mg/kg/injection, schedule: Q01DX009 (ip), vehicle: saline
  T/C: 87 % of control

## Cc1c(NS(=O)(=O)c2ccccc2)c(C)c(NS(=O)(=O)c2ccccc2)c(C)c1NS(=O)(=O)c1ccccc1
endpoint: mean survival time, dose: 50.0 mg/kg/injection, schedule: Q04DX003 (ip), vehicle: saline with Tween-80
  T/C: 92 % of control
[8]
  T/C: 88 % of control and 93 % of control
endpoint: mean survival time, dose: 200.0 mg/kg/injection, schedule: Q04DX003 (ip), vehicle: saline with Tween-80
  T/C: 93 % of control and 94 % of control
endpoint: mean survival time, dose: 400.0 mg/kg/injection, schedule: Q04DX003 (ip), vehicle: saline with Tween-80
  T/C: 96 % of control

## O=Cc1[nH]c(=S)[nH]c(=O)c1CCCc1ccccc1
endpoint: mean survival time, dose: 25.0 mg/kg/injection, schedule: Q04DX002 (ip), vehicle: Klucel (hydroxypropylcellulose) (HPC)
  T/C: 96 % of control
endpoint: mean survival time, dose: 50.0 mg/kg/injection, schedule: Q04DX002 (ip), vehicle: Klucel (hydroxypropylcellulose) (HPC)
  T/C: 104 % of control
endpoint: mean survival time, dose: 100.0 mg/kg/injection, schedule: Q04DX002 (ip), vehicle: Klucel (hydroxypropylcellulose) (HPC)
  T/C: 93 % of control
endpoint: mean survival time, dose: 200.0 mg/kg/injection, schedule: Q04DX002 (ip), vehicle: Klucel (hydroxypropylcellulose) (HPC)
  T/C: 94 % of control
endpoint: mean survival time, dose: 400.0 mg/kg/injection, schedule: Q04DX002 (ip), vehicle: Klucel (hydroxypropylcellulose) (HPC)
  T/C: 90 % of control

## O=c1cnn(C2OC(CO)C(O)C2O)c(=S)[nH]1 (configuration not stated)
[4]
  T/C: 123 % of control
endpoint: mean survival time, dose: 100.0 mg/kg/injection, schedule: Q04DX003 (ip), vehicle: saline sonified
  T/C: 102 % of control
[5]
  T/C: 107 % of control
endpoint: mean survival time, dose: 200.0 mg/kg/injection, schedule: Q04DX003 (ip), vehicle: saline sonified
  T/C: 104 % of control
[6]
  T/C: 112 % of control
endpoint: mean survival time, dose: 400.0 mg/kg/injection, schedule: Q04DX003 (ip), vehicle: saline sonified
  T/C: 96 % of control

## C=CCc1cc(CNCC(O)c2ccccc2)c(O)c(OC)c1 (configuration not stated)
endpoint: mean survival time, dose: 25.0 mg/kg/injection, schedule: Q01DX009 (ip), vehicle: Klucel (hydroxypropylcellulose) (HPC)
  T/C: 89 % of control
endpoint: mean survival time, dose: 50.0 mg/kg/injection, schedule: Q01DX009 (ip), vehicle: Klucel (hydroxypropylcellulose) (HPC)
  T/C: 112 % of control

## CC1(O)CSC(C)(O)CS1 (configuration not stated)
endpoint: mean survival time, dose: 6.25 mg/kg/injection, schedule: Q04DX002 (ip), vehicle: saline with Tween-80
  T/C: 104 % of control
endpoint: mean survival time, dose: 12.5 mg/kg/injection, schedule: Q04DX002 (ip), vehicle: saline with Tween-80
  T/C: 100 % of control
[1]
  T/C: 104 % of control

## C1CCC(NC2=NCCO2)CC1
[8]
  T/C: 90 % of control

## O/N=C1/CCCC/C1=C/c1ccccc1Cl
[4]
  T/C: 95 % of control
[5]
  T/C: 97 % of control
[6]
  T/C: 100 % of control

## CSC(SC)=C1C(=O)NC(=O)NC1=O
endpoint: median survival time, dose: 3.12 mg/kg/injection, schedule: Q01DX009 (ip), vehicle: saline
  T/C: 101 % of control
endpoint: median survival time, dose: 6.25 mg/kg/injection, schedule: Q01DX009 (ip), vehicle: saline
  T/C: 112 % of control
[9]
  T/C: 109 % of control
endpoint: median survival time, dose: 25.0 mg/kg/injection, schedule: Q01DX009 (ip), vehicle: saline
  T/C: 109 % of control
[10]
  T/C: 116 % of control

## CC[C@](C)(O)C(=O)O[C@H]1C(=O)O[C@@H]2C[C@H]3C(C)=CC(=O)[C@@H](O)[C@]3(C)[C@H]3[C@@]4(O)OC[C@]32[C@@H]1[C@@H](C)[C@H]4O
endpoint: mean survival time, dose: 12.5 micrograms/kg/injection, schedule: Q01DX009 (ip), vehicle: saline with Tween-80
  T/C: 101 % of control
endpoint: mean survival time, dose: 25.0 micrograms/kg/injection, schedule: Q01DX009 (ip), vehicle: saline with Tween-80
  T/C: 100 % of control
endpoint: mean survival time, dose: 50.0 micrograms/kg/injection, schedule: Q01DX009 (ip), vehicle: saline with Tween-80
  T/C: 105 % of control
endpoint: mean survival time, dose: 100.0 micrograms/kg/injection, schedule: Q01DX009 (ip), vehicle: saline with Tween-80
  T/C: 112 % of control

## Cc1nn(-c2ccc(Cl)cc2)c(C)c1N=O
[7]
  T/C: 104 % of control

## O=C1N(CC2CO2)CCN1CC1CO1 (configuration not stated)
[9]
  T/C: 123 % of control
[10]
  T/C: 157 % of control
endpoint: median survival time, dose: 100.0 mg/kg/injection, schedule: Q01DX009 (ip), vehicle: saline
  T/C: 174 % of control
endpoint: median survival time, dose: 200.0 mg/kg/injection, schedule: Q01DX009 (ip), vehicle: saline
  T/C: 277 % of control
endpoint: median survival time, dose: 400.0 mg/kg/injection, schedule: Q01DX009 (ip), vehicle: saline
  T/C: 86 % of control

## Cc1csc(NC(=O)c2ccc(C(=O)Nc3nc(C)cs3)cc2)n1
endpoint: mean survival time, dose: 100.0 mg/kg/injection, schedule: Q01DX001 (ip), vehicle: saline
  T/C: 95 % of control
endpoint: mean survival time, dose: 200.0 mg/kg/injection, schedule: Q01DX001 (ip), vehicle: saline
  T/C: 95 % of control
endpoint: mean survival time, dose: 400.0 mg/kg/injection, schedule: Q01DX001 (ip), vehicle: saline
  T/C: 92 % of control

## O=C(CNC(=O)Nc1ccc(F)cc1)N/N=C/c1c(O)ccc2ccccc12
[3]
  T/C: 92 % of control
[4]
  T/C: 96 % of control
[5]
  T/C: 96 % of control

## NC(=O)c1cn(C2OC(CO)C3OC32)c2ncnc(NC(=O)c3ccccc3)c12 (configuration not stated)
endpoint: mean survival time, dose: 25.0 mg/kg/injection, schedule: Q01DX009 (ip), vehicle: distilled water + Tween-80
  T/C: 90 % of control
endpoint: mean survival time, dose: 50.0 mg/kg/injection, schedule: Q01DX009 (ip), vehicle: distilled water + Tween-80
  T/C: 93 % of control
endpoint: mean survival time, dose: 100.0 mg/kg/injection, schedule: Q01DX009 (ip), vehicle: distilled water + Tween-80
  T/C: 93 % of control
endpoint: mean survival time, dose: 200.0 mg/kg/injection, schedule: Q01DX009 (ip), vehicle: distilled water + Tween-80
  T/C: 97 % of control
endpoint: mean survival time, dose: 400.0 mg/kg/injection, schedule: Q01DX009 (ip), vehicle: distilled water + Tween-80
  T/C: 100 % of control

## O=C1OC(/C=C/c2ccccc2)=NC/1=C\c1ccccc1Cl
[2]
  T/C: 103 % of control
endpoint: mean survival time, dose: 200.0 mg/kg/injection, schedule: Q04DX002 (ip), vehicle: saline with Tween-80
  T/C: 103 % of control
endpoint: mean survival time, dose: 400.0 mg/kg/injection, schedule: Q04DX002 (ip), vehicle: saline with Tween-80
  T/C: 91 % of control

## O=[N+]([O-])c1cc2c(c([N+](=O)[O-])c1)OCOC2
[4]
  T/C: 105 % of control
[5]
  T/C: 96 % of control

## CCC(C)(OC(C)=O)C(=O)OC1C(=O)OC2CC3C(C)=CC(O)C(O)C3(C)C3C4(O)OCC23C1C(C)C4O (configuration not stated)
endpoint: mean survival time, dose: 0.25 mg/kg/injection, schedule: Q01DX009 (ip), vehicle: saline + alcohol
  T/C: 98 % of control
endpoint: mean survival time, dose: 0.5 mg/kg/injection, schedule: Q01DX009 (ip), vehicle: saline + alcohol
  T/C: 102 % of control
endpoint: mean survival time, dose: 1.0 mg/kg/injection, schedule: Q01DX009 (ip), vehicle: saline + alcohol
  T/C: 106 % of control
endpoint: mean survival time, dose: 2.0 mg/kg/injection, schedule: Q01DX009 (ip), vehicle: saline + alcohol
  T/C: 98 % of control
endpoint: mean survival time, dose: 4.0 mg/kg/injection, schedule: Q01DX009 (ip), vehicle: saline + alcohol
  T/C: 96 % of control

## CCOC(=O)c1ncn(C2OC(CO)C(O)C2O)c1N (configuration not stated)
endpoint: mean survival time, dose: 12.5 mg/kg/injection, schedule: Q01DX005 (ip), vehicle: water
  T/C: 97 % of control
endpoint: mean survival time, dose: 25.0 mg/kg/injection, schedule: Q01DX005 (ip), vehicle: water
  T/C: 98 % of control
endpoint: mean survival time, dose: 50.0 mg/kg/injection, schedule: Q01DX005 (ip), vehicle: water
  T/C: 103 % of control
endpoint: mean survival time, dose: 100.0 mg/kg/injection, schedule: Q01DX005 (ip), vehicle: water
  T/C: 101 % of control
endpoint: mean survival time, dose: 200.0 mg/kg/injection, schedule: Q01DX005 (ip), vehicle: water
  T/C: 97 % of control
